The values below come from PubChem BioAssay (NCI).

Common to all, as to experiment: growth of human tumour cells (NCI), 48 h
The subject of experiment [1] is SW-620 colon.
For experiment [2], the system named is KM12 colon.
In experiment [3] the test system is UACC-257 melanoma.
The test system of experiment [4] is HOP-92 NSCLC.
Experiment [5] has as its system K-562 leukemia.
Experiment [6] deals with HCC-2998 colon.
Experiment [7] concerns SF-295 CNS.
The subject of experiment [8] is RPMI-8226 leukemia.
Experiment [9] deals with HT29 colon.
In experiment [10] the test system is SF-539 CNS.
Experiment [11] concerns LOX IMVI melanoma.
Experiment [12] deals with MALME-3M melanoma.
In experiment [13] the test system is SF-268 CNS.
Experiment [14] has as its system NCI/ADR-RES ovarian.
The subject of experiment [15] is MDA-N.
The test system of experiment [16] is OVCAR-5 ovarian.
Experiment [17] relates to OVCAR-8 ovarian.
Experiment [18] deals with 786-0 renal.
In experiment [19] the test system is HCT-116 colon.

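Protocol summary: plate cells (96-well), add compound at 5 concentrations, incubate 48 h, interpolate endpoints linearly. The concentration for full growth arrest is given as TGI.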 Where only a bound is given, the exact number is not on record here.

Take `CC(CO)CCNc1ncnc2c1ncn2CCC(=O)OC(C)(C)C` (configuration not stated): the TGI in experiment [1], in experiment [2], in [3], in experiment [4], in experiment [5] and in experiment [6] was over 100 µM in each case. Moreover, the TGI in experiment [7], in [8], in experiment [9], in experiment [10], in experiment [11] and in [12] was over 100 µM throughout. The TGI in [13], in experiment [14], in [15], in [16], in experiment [17] and in experiment [18] was over 100 µM throughout. This compound also registered a TGI in [19] of over 100 µM.
In the case of `CCCCCC(=O)CCCCCCCC(O)CC(=O)OCC` (configuration not stated), the TGI in experiment [1], in experiment [2], in experiment [3], in experiment [4], in experiment [5] and in [6] was over 100 µM each time. Also, the TGI in [8], in experiment [9], in experiment [10], in experiment [11], in experiment [12] and in [13] was over 100 µM in each case. The TGI in experiment [14], in experiment [15], in experiment [16], in [17], in [18] and in experiment [19] was over 100 µM each time.
With `CCC(C)C1NC(=O)C(NC(=O)c2c3[nH]c4c(C(=O)NC5C(=O)NC(C(C)CC)C(=O)N6CCCC6C(=O)N(C)CC(=O)N(C)C(C(C)C)C(=O)OC5C)ccc(C)c4oc-3c(C)c(=O)c2=O)C(C)OC(=O)C(C(C)C)N(C)C(=O)CN(C)C(=O)C2CCCN2C1=O` (configuration not stated), the TGI in experiment [1] is over 93.7 µM; in experiment [2], over 56.7 µM; in [3], 38.6 µM; in experiment [4], over 80.3 µM; in experiment [5], over 65 µM; in [6], 27.7 µM. Also, the TGI was over 93 µM in experiment [7]; 35.1 µM in [8]; 29.2 µM in [9]; 37.4 µM in [10]; over 53.4 µM in experiment [11]; 22.8 µM in [12]. The TGI in experiment [13] was 97.4 µM; in [14] it was over 100 µM; in experiment [15] it was 33 µM; in experiment [16], over 100 µM; in experiment [17] it was 38.3 µM; in experiment [18] it was over 79.9 µM. Besides, the TGI in experiment [19] came to 40.4 µM.
Consider `CN(C)c1ccc(/C=N\NC(=O)Nc2cccc3ccccc23)cc1`, for which the TGI in experiment [1] was over 100 µM; in experiment [2], over 100 µM; in experiment [3] it was 34.6 µM; in experiment [4], 59.5 µM; in experiment [6], over 100 µM; in experiment [8] it was over 100 µM. Besides, the TGI in experiment [9] was over 100 µM; in experiment [10], 21.5 µM; in experiment [11], 22.1 µM; in [12], 27.4 µM; in experiment [13], 71.8 µM; in [14] it was 78.8 µM. Besides, the TGI in experiment [15] is 12 µM; in [16], over 100 µM; in [17] it was over 100 µM; in experiment [18], 51.5 µM; in [19] it was 65.2 µM.
Consider `O=c1cc(CO)oc(C(O)c2ccccc2)c1O` (configuration not stated), for which the TGI in experiment [1], in experiment [2], in experiment [3], in experiment [4], in [6] and in experiment [7] was over 100 µM each time. The TGI in experiment [8], in experiment [9], in experiment [10], in experiment [11], in experiment [12] and in experiment [13] was over 100 µM in each case. Besides, the TGI in experiment [14], in [15], in [16], in experiment [17], in [18] and in [19] was over 100 µM each time.
As to `O=C(/N=C/c1c(O)c2ccccc2oc1=O)Oc1ccccc1`, the TGI is over 100 µM in experiment [1]; over 100 µM in experiment [2]; 92.2 µM in experiment [3]; 79.9 µM in experiment [4]; over 100 µM in [5]; over 100 µM in experiment [6]. The TGI in experiment [7] was over 100 µM; in [8], over 100 µM; in experiment [9], over 100 µM; in experiment [10] it was 42.2 µM; in experiment [11], 80.9 µM; in experiment [12] it was 61.7 µM. For the same compound, the TGI in experiment [14] was 95.8 µM; in [15], 86.7 µM; in [16], over 100 µM; in [17], 91.9 µM; in [18], 85.7 µM; in [19], 71.8 µM.
For the compound `Cn1c(=O)oc2cc(C(O)CN3CCN(Cc4ccccn4)CC3)c(Cl)cc21` (configuration not stated), the TGI in experiment [1], in experiment [2], in experiment [3], in [4], in experiment [5] and in experiment [6] was over 100 µM throughout. The TGI in [7], in [9], in experiment [10], in experiment [11], in experiment [12] and in [13] was over 100 µM throughout. For the same compound, the TGI in experiment [14], in experiment [15], in experiment [16], in [17], in experiment [18] and in experiment [19] was over 100 µM throughout.
